From US8466132B2, “Substituted tetracycline compounds” (Paratek Pharmaceuticals, Inc., priority 2004, dated 2013)
One block for each compound: values may come before it.

How the values were obtained:
Format in all cases: cell-based
Parameters in all cases: key: Compounds which showed superior inhibition of S. aureus, S. pseumoniae and E. coli are indicated by “***,”; compounds which showed very good or good inhibition of S. aureus, S. pseumoniae and E. coli are indicated by “**” or “*” respectively; compounds which showed very good or good inhibition of S. aureus, S. pseumoniae and E. coli are indicated by “**” or “*” respectively
Settings in all cases: broth microdilution in CAMHB, 35° C., approximately 18 hour
[1] = system: S. aureus RN450; assay: In vitro minimum inhibitory concentration (MIC) assay, S. aureus
Description: (§1) The following assay is used to determine the efficacy of the tetracycline compounds against common bacteria. 2 mg of each compound is dissolved in 100 μl of DMSO. The solution is then added to cation-adjusted Mueller Hinton broth (CAMHB), which results in a final compound concentration of 200 μg per ml. The tetracycline compound solutions are diluted to 50 μL volumes, with a test compound concentration of 0.098 μg/ml. Optical density (OD) determinations are made from fresh log-phase broth cultures of the test strains. Dilutions are made to achieve a final cell density of 1×10^6 CFU/ml. At OD=1, cell densities for different genera should be approximately:
(§2) 50 μl of the cell suspensions are added to each well of microtiter plates. The final cell density should be approximately 5×10^5 CFU/ml. These plates are incubated at 35° C. in an ambient air incubator for approximately 18 hour. The plates are read with a microplate reader and are visually inspected when necessary. The MIC is defined as the lowest concentration of the tetracycline compound that inhibits growth.
(§3) Table 3 gives the MIC (μg/mL) of selected substituted tetracycline compounds against S. aureus, S. pseuimoniae, and E. coli.

[2] = system: S. pneumoniae 157E; assay: In vitro minimum inhibitory concentration (MIC) assay, S. pneumoniae
Description: as §1, §2, §3

[3] = system: E. coli MG 1655; assay: In vitro minimum inhibitory concentration (MIC) assay, E. coli
Description: as §1, §2, §3

SMILES: CN(C)c1cc(C(=O)N2CCCCC2)c(O)c2c1C[C@H]1C[C@H]3[C@H](N(C)C)C(O)=C(C(N)=O)C(=O)[C@@]3(O)C(O)=C1C2=O
Median MIC for S. aureus RN450 [1]: *
Median MIC for S. pneumoniae 157E [2]: *
Median MIC for E. coli MG 1655 [3]: *

SMILES: CN(C)c1cc(-c2ccsc2)c(O)c2c1C[C@H]1C[C@H]3[C@H](N(C)C)C(O)=C(C(N)=O)C(=O)[C@@]3(O)C(O)=C1C2=O
Median MIC for S. aureus RN450 [1]: ***
Median MIC for S. pneumoniae 157E [2]: ***
Median MIC for E. coli MG 1655 [3]: *

SMILES: CN(C)c1cc(-c2cn[nH]c2)c(O)c2c1C[C@H]1C[C@H]3[C@H](N(C)C)C(O)=C(C(N)=O)C(=O)[C@@]3(O)C(O)=C1C2=O
Median MIC for S. aureus RN450 [1]: *
Median MIC for S. pneumoniae 157E [2]: *
Median MIC for E. coli MG 1655 [3]: *

SMILES: CN(C)c1cc(-c2cccnc2)c(O)c2c1C[C@H]1C[C@H]3[C@H](N(C)C)C(O)=C(C(N)=O)C(=O)[C@@]3(O)C(O)=C1C2=O
Median MIC for S. aureus RN450 [1]: **
Median MIC for S. pneumoniae 157E [2]: **
Median MIC for E. coli MG 1655 [3]: *

SMILES: CN(C)c1cc(C#CC(=O)O)c(O)c2c1C[C@H]1C[C@H]3[C@@H](N(C)C)C(O)=C(C(N)=O)C(=O)[C@@]3(O)C(O)=C1C2=O
Median MIC for S. aureus RN450 [1]: *
Median MIC for S. pneumoniae 157E [2]: *
Median MIC for E. coli MG 1655 [3]: *

SMILES: CN(C)c1cc(-c2ncco2)c(O)c2c1C[C@H]1C[C@H]3[C@H](N(C)C)C(O)=C(C(N)=O)C(=O)[C@@]3(O)C(O)=C1C2=O
Median MIC for S. aureus RN450 [1]: **
Median MIC for S. pneumoniae 157E [2]: **
Median MIC for E. coli MG 1655 [3]: *

SMILES: CN(C)c1cc(C(=O)N2CCCC2)c(O)c2c1C[C@H]1C[C@H]3[C@H](N(C)C)C(O)=C(C(N)=O)C(=O)[C@@]3(O)C(O)=C1C2=O
Median MIC for S. aureus RN450 [1]: *
Median MIC for S. pneumoniae 157E [2]: *
Median MIC for E. coli MG 1655 [3]: *

SMILES: CN(C)c1ccc(-c2cc(N(C)C)c3c(c2O)C(=O)C2=C(O)[C@]4(O)C(=O)C(C(N)=O)=C(O)[C@@H](N(C)C)[C@@H]4C[C@@H]2C3)cc1
Median MIC for S. aureus RN450 [1]: ***
Median MIC for S. pneumoniae 157E [2]: ***
Median MIC for E. coli MG 1655 [3]: *

SMILES: CN(C)c1cc(-c2ccccn2)c(O)c2c1C[C@H]1C[C@H]3[C@H](N(C)C)C(O)=C(C(N)=O)C(=O)[C@@]3(O)C(O)=C1C2=O
Median MIC for S. aureus RN450 [1]: ***
Median MIC for S. pneumoniae 157E [2]: ***
Median MIC for E. coli MG 1655 [3]: *

SMILES: CC(=O)NCCNC(=O)c1cc(N(C)C)c2c(c1O)C(=O)C1=C(O)[C@]3(O)C(=O)C(C(N)=O)=C(O)[C@@H](N(C)C)[C@@H]3C[C@@H]1C2
Median MIC for S. aureus RN450 [1]: *
Median MIC for S. pneumoniae 157E [2]: *
Median MIC for E. coli MG 1655 [3]: *

SMILES: CN(C)c1cc(-c2ncccn2)c(O)c2c1C[C@H]1C[C@H]3[C@H](N(C)C)C(O)=C(C(N)=O)C(=O)[C@@]3(O)C(O)=C1C2=O
Median MIC for S. aureus RN450 [1]: ***
Median MIC for S. pneumoniae 157E [2]: **
Median MIC for E. coli MG 1655 [3]: *

SMILES: CN(C)c1cc(-c2ccc(C(N)=O)cc2)c(O)c2c1C[C@H]1C[C@H]3[C@H](N(C)C)C(O)=C(C(N)=O)C(=O)[C@@]3(O)C(O)=C1C2=O
Median MIC for S. aureus RN450 [1]: *
Median MIC for S. pneumoniae 157E [2]: **
Median MIC for E. coli MG 1655 [3]: *

SMILES: CN(C)c1cc(-c2cccc(C(=O)O)c2)c(O)c2c1C[C@H]1C[C@H]3[C@H](N(C)C)C(O)=C(C(N)=O)C(=O)[C@@]3(O)C(O)=C1C2=O
Median MIC for S. aureus RN450 [1]: *
Median MIC for S. pneumoniae 157E [2]: *
Median MIC for E. coli MG 1655 [3]: *

SMILES: COC(=O)C#Cc1cc(N(C)C)c2c(c1O)C(=O)C1=C(O)[C@]3(O)C(=O)C(C(N)=O)=C(O)[C@H](N(C)C)[C@@H]3C[C@@H]1C2
Median MIC for S. aureus RN450 [1]: ***
Median MIC for S. pneumoniae 157E [2]: ***
Median MIC for E. coli MG 1655 [3]: *

Other lines, results leading:

Median MIC for S. aureus RN450 [1]: **
Median MIC for S. pneumoniae 157E [2]: *
Median MIC for E. coli MG 1655 [3]: *
SMILES: CN(C)c1cc(C(=O)C(=O)O)c(O)c2c1C[C@H]1C[C@H]3[C@H](N(C)C)C(O)=C(C(N)=O)C(=O)[C@@]3(O)C(O)=C1C2=O

Median MIC for S. aureus RN450 [1]: *
Median MIC for S. pneumoniae 157E [2]: *
Median MIC for E. coli MG 1655 [3]: *
SMILES: CN(C)c1cc(C(=O)NCCO)c(O)c2c1C[C@H]1C[C@H]3[C@H](N(C)C)C(O)=C(C(N)=O)C(=O)[C@@]3(O)C(O)=C1C2=O

Median MIC for S. aureus RN450 [1]: *
Median MIC for S. pneumoniae 157E [2]: *
Median MIC for E. coli MG 1655 [3]: *
SMILES: CN(C)c1cc(C(=O)NOC(C)(C)C)c(O)c2c1C[C@H]1C[C@H]3[C@H](N(C)C)C(O)=C(C(N)=O)C(=O)[C@@]3(O)C(O)=C1C2=O

Median MIC for S. aureus RN450 [1]: *
Median MIC for S. pneumoniae 157E [2]: *
Median MIC for E. coli MG 1655 [3]: *
SMILES: CN(C)c1cc(C(=O)NO)c(O)c2c1C[C@H]1C[C@H]3[C@H](N(C)C)C(O)=C(C(N)=O)C(=O)[C@@]3(O)C(O)=C1C2=O

Median MIC for S. aureus RN450 [1]: *
Median MIC for S. pneumoniae 157E [2]: ***
Median MIC for E. coli MG 1655 [3]: *
SMILES: CN(C)c1cc(C(=O)NCCN)c(O)c2c1C[C@H]1C[C@H]3[C@H](N(C)C)C(O)=C(C(N)=O)C(=O)[C@@]3(O)C(O)=C1C2=O

Median MIC for S. aureus RN450 [1]: ***
Median MIC for S. pneumoniae 157E [2]: ***
Median MIC for E. coli MG 1655 [3]: *
SMILES: CCC(=O)c1cc(N(C)C)c2c(c1O)C(=O)C1=C(O)[C@]3(O)C(=O)C(C(N)=O)=C(O)[C@@H](N(C)C)[C@@H]3C[C@@H]1C2

Median MIC for S. aureus RN450 [1]: *
Median MIC for S. pneumoniae 157E [2]: *
Median MIC for E. coli MG 1655 [3]: *
SMILES: CC(=O)c1cc(N(C)C)c2c(c1O)C(=O)C1=C(O)[C@]3(O)C(=O)C(C(N)=O)=C(O)[C@H](N(C)C)[C@@H]3C[C@@H]1C2

Median MIC for S. aureus RN450 [1]: *
Median MIC for S. pneumoniae 157E [2]: *
Median MIC for E. coli MG 1655 [3]: *
SMILES: CN(C)c1cc(C(N)=O)c(O)c2c1C[C@H]1C[C@H]3[C@H](N(C)C)C(O)=C(C(N)=O)C(=O)[C@@]3(O)C(O)=C1C2=O

Median MIC for S. aureus RN450 [1]: *
Median MIC for S. pneumoniae 157E [2]: *
Median MIC for E. coli MG 1655 [3]: *
SMILES: COC(=O)CNC(=O)c1cc(N(C)C)c2c(c1O)C(=O)C1=C(O)[C@]3(O)C(=O)C(C(N)=O)=C(O)[C@@H](N(C)C)[C@@H]3C[C@@H]1C2

Median MIC for S. aureus RN450 [1]: *
Median MIC for S. pneumoniae 157E [2]: *
Median MIC for E. coli MG 1655 [3]: *
SMILES: CCCCNC(=O)c1cc(N(C)C)c2c(c1O)C(=O)C1=C(O)[C@]3(O)C(=O)C(C(N)=O)=C(O)[C@@H](N(C)C)[C@@H]3C[C@@H]1C2

Median MIC for S. aureus RN450 [1]: ***
Median MIC for S. pneumoniae 157E [2]: **
Median MIC for E. coli MG 1655 [3]: *
SMILES: CN(C)c1cc(C(=O)NCC(C)(C)C)c(O)c2c1C[C@H]1C[C@H]3[C@H](N(C)C)C(O)=C(C(N)=O)C(=O)[C@@]3(O)C(O)=C1C2=O

Median MIC for S. aureus RN450 [1]: **
Median MIC for S. pneumoniae 157E [2]: **
Median MIC for E. coli MG 1655 [3]: *
SMILES: CN(C)c1cc(C(=O)NC(C)(C)C)c(O)c2c1C[C@H]1C[C@H]3[C@H](N(C)C)C(O)=C(C(N)=O)C(=O)[C@@]3(O)C(O)=C1C2=O

Median MIC for S. aureus RN450 [1]: *
Median MIC for S. pneumoniae 157E [2]: *
Median MIC for E. coli MG 1655 [3]: *
SMILES: CCCNC(=O)c1cc(N(C)C)c2c(c1O)C(=O)C1=C(O)[C@]3(O)C(=O)C(C(N)=O)=C(O)[C@@H](N(C)C)[C@@H]3C[C@@H]1C2
